# Laboratory results published in patent US4788206A, “Pentadieneamides” (Hoffmann-La Roche Inc., priority 1987, dated 1988).
# Key:
# [1] = molecular target: T1, PAF Binding, dog platelets (Canis lupus familiaris, UniProt A0A8I3NSH0); assay: PAF Binding Assay (inhibition of 3H-PAF binding to washed dog platelets); details: dog platelets, 3H-PAF, 10 minutes at room temperature; read-out: Inhib of PAF Binding IC50
# T1 construct: Washed platelets were prepared by resuspending the platelet pellet once with PBS containing 1 mM EDTA; from tissue; host or cells: washed platelets from dog blood
# T1 sequence (A0A8I3NSH0 1-343): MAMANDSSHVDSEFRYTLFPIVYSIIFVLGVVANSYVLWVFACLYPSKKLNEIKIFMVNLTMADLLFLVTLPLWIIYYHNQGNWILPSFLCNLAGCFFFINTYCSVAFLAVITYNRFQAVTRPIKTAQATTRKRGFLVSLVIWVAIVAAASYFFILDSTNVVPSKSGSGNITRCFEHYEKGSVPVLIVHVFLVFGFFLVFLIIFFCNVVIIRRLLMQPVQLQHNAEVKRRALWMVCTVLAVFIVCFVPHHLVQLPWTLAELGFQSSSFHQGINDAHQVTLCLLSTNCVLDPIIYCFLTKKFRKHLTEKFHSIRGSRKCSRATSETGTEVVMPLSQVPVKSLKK
# Description: The binding assay was done in 400 μl polyethylene microcentrifuge tubes (Beckman) containing 50 μl of an oil mixture of 2 parts Siliconol AR200 (Serva): 1 part Silicone Fluid (Arthur H. Thomas). Buffer, standards, or analogs (150 μl total volume) were added to the tubes. Radiolabelled ^3 H-PAF (50 μl) was then added to the tubes. The reaction was started by the addition of 50 μl of dog platelets (2×10^7 platelets). The tubes were capped, inverted several times to mix, and incubated for 10 minutes at room temperature. The platelets were separated from the incubation mixture by centrifuging 1 minute in a Beckman Microfuge B centrifuge. The tip of the microfuge tube was cut off, and the platelets were washed out of the tip with 200 μl of 50% methanol (Burdick and Jackson). Aquasol (NEN, 10 ml) was added and the radioactivity in the samples was determined using an LS 8100 Beckman liquid scintillation counter linked to a Techtran tape recorder. Data was processed through an in-house computer system. Alternatively, radioactivity was determined using a Searle Mark III liquid scintillation counter linked to a Iso-Data microprocessor.
# (b) Preparation of Platelets
# Blood was collected from anesthesized or unanesthesized dogs into 50 ml plastic centrifuge tubes containing 3.8% sodium citrate as the anticoagulant (1 volume of citrate/9 volumes of blood). The red cells were removed by centrifugation for 15 minutes at 600 rpm (100-125 g) at room temperature. An aliquot of the supernatant platelet rich plasma (PRP) was saved for cell counting and the remainder was acidified to PH 6.5 with 0.15M citric acid. The platelet pellet was obtained after a 10 minute centrifugation at 2000 rpm (1000 g) at room temperature. Washed platelets were prepared by resuspending the platelet pellet once with PBS containing 1 mM EDTA, centrifuging as noted, and then resuspending the platelets in 0.1% BSA-PBS. An aliquot of the washed platelets was counted. Platelets used for binding assays were diluted to 2×10^7 platelets/assay tube (4×10^8 platelets/ml). Platelet counting was done using a Royco Cell-Crit 921.
# [2] = tested on: PAF-Induced Bronchoconstriction; assay: PAF Induced Bronchoconstriction Assay; assay type: in vivo, guinea pig; details: for Percent Inhib. of PAF-Induced Bronchoconstriction, mg/Kg i.v.: i.v. (dose not given), 1 minute pretreatment, PAF 1.0 μg/kg i.v.; for inhibition in vivo at 50 mg/kg: Cavia porcellus, po, 2-hour pretreatment, read-out: Percent Inhib. of PAF-Induced Bronchoconstriction, 50 mg/Kg p.o.; for inhibition in vivo at 50 mg/kg / Percent Inhib. of PAF-Induced Bronchoconstriction, 50 mg/Kg p.o. (8 hr): 50 mg/Kg p.o.
# Description: PAF Induced Bronchoconstriction Assay
# Male animals (Hartlet Strain 400-500 g) were anesthetized with urethane (2 g/kg. i.p.). Each animals' trachea was cannulated and the guinea pigs were repirated using a Harvard small animal rodent respirator (3.0 cc stroke volume, 40 breaths per min.). Tracheal pressure was recorded from a cannula inserted in the trachea and connected to a Statham Pressure Transducer.
# The jugular vein was cannulated for administering compounds. Spontaneous breathing was arrested with succinylcholine (1.2 mg/kg. i.v.) administered 2 minutes prior to intravenous injection of platelet activating factor (PAF).
# For, the intravenous testing, the guinea pig is given a 5-minute pretreatment with propranolol at a dose of 0.1 mg/kg intravenously. The test compound is administered with a 1 minute pretreatment prior to intravenous challenge with PAF. The animal is than challenged with a 1.0 μg/kg intravenous dose of PAF and the change is tracheal pressure is measured.
# For the oral testing, the procedure includes a 2-hour pretreatment period with the test compound administered through an oral gavage tube. Propranolol or succinylcholine and PAF are administered intravenously, and the change in tracheal pressure measured.
# The change is tracheal pressure is determined by subtracting the steady state baseline achieved after administration of succinylcholine from the peak bronchoconstriction seen after challenge with PAF. The mean is calculated for each test compound and compared to the mean of the control animals to give the percent inhibition of bronchoconstriction. The standard error is calcuated as the standard error of the mean.
Structure (SMILES),IC50 [1],"Percent Inhib. of PAF-Induced Bronchoconstriction, mg/Kg i.v. [2]",inhibition in vivo at 50 mg/kg [2],also measured
COc1ccc(C(=C/C=C/C(=O)NCCOCc2cccnc2)c2ccc(OC)cc2)cc1,25 nM,48 ± 7%,,
"CC(CCCc1cccnc1)NC(=O)/C=C/C=C(c1ccccc1)c1ccccc1 (racemic) [[R,S-(E)]-5,5-Diphenyl-N-[1-methyl-4-(3-pyridinyl)butyl]-2,4-pentadienamide]",100 nM,,,
"COc1ccc(C(=C/C=C/C(=O)NC(CCCc2cccnc2)C(C)C)c2ccc(OC)cc2)cc1 (racemic) [[R,S-(E)]-5,5-bis(4-methoxyphenyl)-N-[1-(1-methylethyl)-4-(3-pyridinyl)butyl]-2,4-pentadienamide]",,87 ± 7%,57 ± 19%,
"COc1ccc(C(=C/C=C/C(=O)NC(C)CCCc2cccnc2C)c2ccc(OC)cc2)cc1 (racemic) [[R,S-(E)]-5,5-bis(4-methoxyphenyl)-N-[1-methyl-4-(2-methyl-3-pyridinyl)butyl]-2,4-pentadienamide]",30 nM,47 ± 10%,,
"COc1ccc(C(=C/C=C/C(=O)NC(C)CCCc2ccc(C)nc2)c2ccc(OC)cc2)cc1 (racemic) [[R,S-(E)]-5,5-bis(4-methoxyphenyl)-N-[1-methyl-4-(6-methyl-3-pyridinyl)butyl]-2,4-pentadienamide]",700 nM,,,
"CCCC(CCCc1cccnc1)NC(=O)/C=C/C=C(c1ccc(OC)cc1)c1ccc(OC)cc1 (racemic) [[R,S-(E)]-5,5-bis(4-methoxyphenyl)-N-[1-propyl-4-(3-pyridinyl)butyl]-2,4-pentadienamide]",> 1000 nM,24 ± 13%,,
"CCc1ccc(CCCC(C)NC(=O)/C=C/C=C(c2ccc(OC)cc2)c2ccc(OC)cc2)cn1 (racemic) [[R,S-(E)]-5,5-bis-(4-methoxyphenyl)-N-[1-methyl-4-(6-ethyl-3-pyridinyl)butyl]-2,4-pentadienamide]",900 nM,,,
"COc1cccc(C(=C/C=C/C(=O)NC(C)CCCc2cccnc2)c2cccc(OC)c2)c1 (racemic) [[R.S-(E)]-5,5-bis(3-methoxyphenyl)-N-[1-methyl-4-(3-pyridinyl)butyl]-2,4-pentadienamide]",20 nM,,,
"C/C(=C\C=C(c1ccccc1)c1ccccc1)C(=O)NCCCCc1cccnc1 [(E)-5,5-Diphenyl-2-methyl-N-[4-(3-pyridinyl)butyl]-2,4-pentadienamide]",100 nM,,,
"CC(C)(CCCc1cccnc1)NC(=O)/C=C/C=C(c1cccc(F)c1)c1cccc(F)c1 [(E)-5,5-bis(3-Fluorophenyl)-N-[1,1-dimethyl-4-(3-pyridinyl)butyl]-2,4-pentadienamide]",,,11 ± 10%,
"COc1cccc(C(=C/C=C/C(=O)NC(C)(C)CCCc2cccnc2)c2cccc(OC)c2)c1 [(E)-5,5-bis(3-Methoxyphenyl)-N-[1,1-dimethyl-4-(3-pyridinyl)butyl]-2,4-pentadienamide]",,,22 ± 10%,
"COc1cccc(C(=C/C=C/C(=O)NCCCCCCc2cccnc2)c2cccc(OC)c2)c1 [(E)-5,5-bis(3-Methoxyphenyl)-N-[6-(3-pyridinyl)hexyl]-2,4-pentadienamide]",450 nM,,,
"CC(C)(CCCc1cccnc1)NC(=O)/C=C/C=C(c1ccc(F)cc1)c1ccc(F)cc1 [(E)-5,5-bis(4-Fluorophenyl)-N-[1,1-dimethyl-4-(3-pyridinyl)butyl]-2,4-pentadienamide]",,,20 ± 14%,
"COc1ccc(C(=C/C=C/C(=O)NC(C)(C)CCCc2cccnc2)c2ccc(OC)cc2)cc1 [(E)-5,5-bis(4-Methoxyphenyl)-N-1,1-dimethyl-4-(3-pyridinyl)butyl]-2,4-pentadienamide]",,,54 ± 9%,
"COc1ccc(C(=C/C=C/C(=O)NCCCOc2cccnc2)c2ccc(OC)cc2)cc1 [(E)-5,5-bis(4-methoxyphenyl)-N-[3-[(3-pyridinyl)oxy]propyl]-2,4-pentadienamide]",300 nM,,,
"Cc1ccc(C(=C/C=C/C(=O)NCCCCc2cccnc2)c2ccc(C)cc2)cc1 [(E)-5,5-bis(4-methylphenyl)-N-[4-(3-pyridinyl)butyl]-2,4-pentadienamide]",,95 ± 1%,67 ± 15%,"Percent Inhib. of PAF-Induced Bronchoconstriction, 50 mg/Kg p.o. (8 hr) [2]: 11 ± 6%"
"COc1ccc(C(=C/C=C/C(=O)Nc2cccc3cnccc23)c2ccc(OC)cc2)cc1 [(E)-N-(5-isoquinolinyl)-5,5-bis(4-methoxyphenyl)-2,4-pentadienamide]",600 nM,,,
"COc1ccc(C(=C/C=C/C(=O)NCCCc2cccc3ccncc23)c2ccc(OC)cc2)cc1 [(E)-N-[3-(8-isoquinolinyl)propyl]-5,5-bis(4-methoxyphenyl)-2,4-pentadienamide]",> 1000 nM,,,
"COc1ccc(C(=C/C=C/C(=O)NCCCCc2cncc3ccccc23)c2ccc(OC)cc2)cc1 [(E)-N-[4-(4-isoquinolinyl)butyl]-5,5-bis(4-methoxyphenyl)-2,4-pentadienamide]",> 1000 nM,,,
"O=C(/C=C\C=C(c1ccccc1)c1ccccc1)NCCCCc1cccnc1 [(Z)-5,5-diphenyl-N-[4-(3-pyridinyl)butyl]-2,4-pentadienamide]",400 nM,,,
"CCCCC/C(=C/C=C/C(=O)N[C@H](C)CCCc1cccnc1)c1ccc(OC)cc1 [[R-(2E,4Z)]-5-(4-methoxyphenyl)-N-[1-methyl-4-(3-pyridinyl)butyl]-2,4-decadienamide]",,57 ± 12%,,
"COc1ccc(/C(=C\C=C\C(=O)N[C@H](C)CCCc2cccnc2)c2ccccc2)cc1 [[R-(2E,4Z)]-5-(4-methoxyphenyl)-N-[1-methyl-4-(3-pyridinyl)butyl]-5-phenyl-2,4-pentadienamide]",,74 ± 11%,0%,
"COc1ccc(/C(=C\C=C\C(=O)N[C@H](C)CCCc2cccnc2)C2CCCCC2)cc1 [[R-(2E,4Z)]-5-cyclohexyl-5-(4-methoxyphenyl)-N-[1-methyl-4-(3-pyridinyl)butyl]-2,4-pentadienamide]",,18 ± 12%,,
"CCCCC/C(=C\C=C\C(=O)N[C@H](C)CCCc1cccnc1)c1ccc(OC)cc1 [[R-(E,E)]5-(4-methoxyphenyl)-N-[1-methyl-4-(3-pyridinyl)butyl]-2,4-decadienamide]",,99 ± 1%,100 ± 0.5%,"Percent Inhib. of PAF-Induced Bronchoconstriction, 50 mg/Kg p.o. (8 hr) [2]: 71 ± 14%"
"COc1ccc(/C(=C/C=C/C(=O)N[C@H](C)CCCc2cccnc2)c2ccccc2)cc1 [[R-(E,E)]-5-(4-methoxyphenyl)-N-[1-methyl-4-(3-pyridinyl)butyl]-5-phenyl-2,4-pentadienamide]",,89 ± 4%,95 ± 1%,
"C[C@@H](CCCc1cccnc1)NC(=O)/C=C/C=C(c1ccc(F)cc1)c1ccc(F)cc1 [[S-(E)]-5,5-bis(4-fluorophenyl)-N-[1-methyl-4-(3-pyridinyl)butyl]-2,4-pentadienamide]",,,44 ± 10%,
